Source: PubChem BioAssay (NCI)
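96-well plates; 48 h exposure; 5 concentrations. Endpoints by linear interpolation between flanking doses. Not reached: highest tested concentration assigned. The concentration for 50% growth inhibition is given as GI50. The concentration for full growth arrest is given as TGI.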

Key:
Assay in all cases: NCI anticancer screen, dose series, 48 h
HT29 colon = tested on: HT29 colon
HOP-92 NSCLC = tested on: HOP-92 NSCLC
MCF7 breast = tested on: MCF7 breast
SK-OV-3 ovarian = tested on: SK-OV-3 ovarian
OVCAR-4 ovarian = tested on: OVCAR-4 ovarian
SF-295 CNS = tested on: SF-295 CNS
UO-31 renal = tested on: UO-31 renal
SNB-75 CNS = tested on: SNB-75 CNS
MOLT-4 leukemia = tested on: MOLT-4 leukemia
A549 NSCLC = tested on: A549 NSCLC
HL-60(TB) leukemia = tested on: HL-60(TB) leukemia

SMILES | TGI (HT29 colon) | TGI (HOP-92 NSCLC) | TGI (MCF7 breast) | TGI (SK-OV-3 ovarian) | TGI (OVCAR-4 ovarian) | TGI (SF-295 CNS) | TGI (UO-31 renal) | TGI (SNB-75 CNS) | TGI (MOLT-4 leukemia) | TGI (A549 NSCLC) | TGI (HL-60(TB) leukemia) | GI50 (HT29 colon) | GI50 (MCF7 breast) | GI50 (SK-OV-3 ovarian) | GI50 (OVCAR-4 ovarian) | GI50 (SF-295 CNS) | GI50 (UO-31 renal) | GI50 (SNB-75 CNS) | GI50 (A549 NSCLC) | GI50 (HL-60(TB) leukemia)
Cc1ccc(S(=O)(=O)N2c3ccccc3[C@H]3CCc4c([nH]c5ccccc45)[C@H]32)cc1 | > 100 µM | > 100 µM | > 100 µM | > 100 µM | > 100 µM | > 100 µM | > 100 µM | > 100 µM | > 100 µM | > 100 µM |  |  |  |  |  |  |  |  |  | 
CC(C)OC(=O)Nc1cccc(Cl)c1 | > 100 µM | > 100 µM | > 100 µM | > 100 µM | > 100 µM | > 100 µM | > 100 µM | > 100 µM | > 100 µM | > 100 µM | > 100 µM |  |  |  |  |  |  |  |  | 
CC1=C(C#N)C23C(=O)c4ccccc4C(O)=C2C(=O)C=CC3(O)N1 (stereo not given) | 5.02 µM | 6.38 µM | 4.59 µM | > 100 µM | 4.16 µM | 66.9 µM | 7.55 µM | 4.56 µM | > 100 µM | > 100 µM | 15.2 µM |  |  |  |  |  |  |  |  | 
CO[C@H]1ON=C(c2c(C)cc(C)cc2C)[C@@H]1C1(c2ccccc2)ON=C(c2c(C)cc(C)cc2C)O1 (stereo not given in full) |  | > 100 µM |  | > 100 µM |  | > 100 µM | > 100 µM |  | > 100 µM | > 100 µM | > 100 µM |  |  |  |  |  |  |  |  | 
CN1C(=O)CN2C(Cl)(Cl)C2(c2ccccc2F)c2cc([N+](=O)[O-])ccc21 (stereo not given) | > 100 µM | 91.4 µM |  |  | > 100 µM | > 100 µM | > 100 µM | > 100 µM | 57.2 µM |  |  |  |  |  |  |  |  |  |  | 
Cn1cc(-c2csc(-c3cn(C)c4ccc(Br)cc34)n2)c2cnccc21 | 3.09 µM |  | 3.43 µM | 3.6 µM | 3.15 µM | 3.4 µM | 3 µM | 2.6 µM |  | 3.48 µM | 3.31 µM | 1.6 µM | 1.78 µM | 1.99 µM | 1.68 µM | 1.81 µM | 1.63 µM | 1.28 µM | 1.83 µM | 1.48 µM
COc1ccc(CC2c3cc(OC)c(OC)c(OC)c3CC[N+]2(C)C)cc1Oc1ccc(CC2c3cc4c(c(OC)c3CC[N+]2(C)C)OCO4)cc1 (stereo not given) | > 100 µM | > 100 µM | > 100 µM | > 100 µM | > 100 µM | > 100 µM | > 100 µM | > 100 µM | > 100 µM | > 100 µM | > 100 µM |  |  |  |  |  |  |  |  | 
CC(=O)OCc1ccc2oc(=O)c(C(=O)Oc3cccc(Cl)c3)cc2c1 | 80.2 µM | 43.5 µM | 61.6 µM | > 100 µM | > 100 µM | > 100 µM | 55.4 µM | > 100 µM | > 100 µM | > 100 µM |  |  |  |  |  |  |  |  |  | 
CCCCC(C(=O)N/N=C/c1ccc([N+](=O)[O-])o1)C(=O)N/N=C/c1ccc([N+](=O)[O-])o1 | 5.16 µM | 4.08 µM | 22.4 µM | 50.9 µM | 3.4 µM | 31.4 µM | 4.6 µM | 33.5 µM | 7.72 µM | 41.4 µM | 6.71 µM |  |  |  |  |  |  |  |  | 
[O-]c1c[n+](CCCC[n+]2cc([O-])on2)no1 | > 100 µM | > 100 µM | > 100 µM | > 100 µM | > 100 µM | > 100 µM | > 100 µM | > 100 µM | > 100 µM | > 100 µM | > 100 µM |  |  |  |  |  |  |  |  | 
c1ccc(CSC2(SCc3ccccc3)CCCC2)cc1 | > 10 µM |  | > 10 µM | > 10 µM | > 10 µM | > 10 µM | > 10 µM | > 10 µM | > 10 µM | > 10 µM | > 10 µM |  |  |  |  |  |  |  |  | 
c1ccc(CSc2ccccc2CN2CCN(Cc3ccccc3SCc3ccccc3)CCN(Cc3ccccc3SCc3ccccc3)CC2)cc1 | 2.42 µM | 2 µM | 3.32 µM | 6.34 µM | 3.38 µM | 2.45 µM | 7.66 µM | 4.18 µM | 6.26 µM | 10.1 µM | 4.06 µM |  |  |  |  |  |  |  |  | 
C1CCC(OCc2nnn3c2CCC3)OC1 (stereo not given) | > 100 µM | > 100 µM |  | > 100 µM | > 100 µM | > 100 µM | > 100 µM | > 100 µM | > 100 µM | > 100 µM | > 100 µM |  |  |  |  |  |  |  |  | 
NC(=O)c1ccc(NS(=O)(=O)c2ccc(N)cc2)nc1 | > 100 µM | > 100 µM | > 100 µM | > 100 µM | > 100 µM | > 100 µM | > 100 µM | > 100 µM | > 100 µM |  | > 100 µM |  |  |  |  |  |  |  |  | 
COC(=O)C(=O)C(C(=O)C1=NS(=O)(=O)c2cc(S(N)(=O)=O)c(Cl)cc2N1)c1nc2ccc(C(=O)c3ccccc3)cc2[nH]c1=O (stereo not given) | > 100 µM |  |  |  | > 100 µM | > 100 µM | > 100 µM |  | > 100 µM | > 100 µM |  |  |  |  |  |  |  |  |  | 
Nc1nc(Cl)cc(NCCCNc2cc(Cl)nc(N)n2)n1 | > 100 µM | > 100 µM |  | > 100 µM | > 100 µM | > 100 µM | > 100 µM | > 100 µM | > 100 µM | > 100 µM | > 100 µM |  |  |  |  |  |  |  |  | 
CCN1CCN(c2nc3ccccc3nc2C(=O)c2ccc(OC)cc2)CC1 | > 100 µM | > 100 µM | 58.8 µM | > 100 µM | > 100 µM | > 100 µM | > 100 µM | > 100 µM | > 100 µM | > 100 µM | > 100 µM |  |  |  |  |  |  |  |  | 
CS/C(C#N)=C(\C#N)SC | 64.2 µM |  | 12.3 µM |  | 38.2 µM | 53.8 µM | 18.9 µM | > 100 µM | 4.77 µM | > 100 µM | 6.39 µM |  |  |  |  |  |  |  |  | 
C=CCc1c(C)nc(C)nc1N/N=C/C=C/c1ccccc1 | > 100 µM | 99.5 µM | 65.3 µM | > 100 µM | 0.18 µM | 52.9 µM | > 100 µM | 91.6 µM | 54 µM | > 100 µM | 81.2 µM |  |  |  |  |  |  |  |  | 
CNC1C(O)C(NC)C2OC3(O)C(=O)CC(C)OC3OC2C1O (stereo not given) | > 100 µM | > 100 µM | > 100 µM | > 100 µM | > 100 µM | > 100 µM | > 100 µM | > 100 µM | > 100 µM | > 100 µM | > 100 µM |  |  |  |  |  |  |  |  | 
CN(C)CC1CCCC(CN2CCCCC2)C1=O (stereo not given) | 25.1 µM | 3.8 µM | 2.62 µM | > 100 µM | 7.75 µM | > 100 µM | 26.7 µM | 43.2 µM | 12.5 µM | > 76.4 µM | 11.8 µM |  |  |  |  |  |  |  |  | 
CN(C)CCCNC(=O)c1cc(NC(=O)c2cc(NS(=O)(=O)c3ccc4c(c3)C(=O)c3ccccc3C4=O)cn2C)cn1C | > 100 µM | > 100 µM | > 100 µM | > 100 µM | > 100 µM | > 100 µM | > 100 µM | > 100 µM | > 100 µM | > 100 µM | > 100 µM |  |  |  |  |  |  |  |  | 
Cc1cc(S(=O)(=O)NC(=C(C#N)C#N)[n+]2ccc(N(C)C)cc2)c([S-])cc1Cl | > 100 µM | > 100 µM | > 100 µM | > 100 µM | > 100 µM | > 100 µM | > 100 µM |  | > 100 µM | > 100 µM | > 100 µM |  |  |  |  |  |  |  |  | 
Cc1ccccc1[P+](C)(c1ccccc1C)c1ccccc1C | 19.1 µM | 58 µM | > 100 µM | > 100 µM | 18.1 µM |  | 34.8 µM | 40.8 µM |  | 55.4 µM |  |  |  |  |  |  |  |  |  | 
C=C1C(=O)OC2/C=C(\C)C3OC3/C=C(/C(=O)OC)C(O)C(OC(=O)C3(C)OC3C)C12 (stereo not given) | 3.63 µM | 5.68 µM |  | 26.4 µM | 8.77 µM | 27 µM | 27.3 µM | 26.3 µM | 4.05 µM | 32 µM |  |  |  |  |  |  |  |  |  | 
CC(N)C(=O)OCN1C(=O)C2C3C=CC(C2C1=O)C1C2C(=O)N(COC(=O)C(C)N)C(=O)C2C31 (stereo not given) | > 100 µM | > 100 µM |  | > 100 µM | 40.9 µM | > 100 µM | > 100 µM | 85.5 µM | 51.8 µM | 77.7 µM | 62.2 µM |  |  |  |  |  |  |  |  | 
Cc1nc2c(O)cc3c4c(=O)n(C)c(=O)n(C)c4n(Cc4ccccc4)c3c2nc1C | 32.2 µM | 27.2 µM | 32.2 µM | 32.2 µM | 23.7 µM | > 100 µM | 31.4 µM |  | 70.1 µM | 36.2 µM | 53.8 µM |  |  |  |  |  |  |  |  | 
